Key:
Assay type in all cases: in vivo, HIV-1-infected adults
HIV-1 [1] = assay: Phase IIb study 205891: plasma HIV-1 RNA response at Week 24 (FDA snapshot, observed); conditions: Week 24, mITT; GSK3532795: range across 60, 120, 180 mg arms; EFV 600 mg; each + TDF/FTC
Method: 205891 was a Phase IIb, randomized, active-controlled, double-blind trial performed at 58 sites in 12 countries across South America, North America, South Africa, and Europe. Participants were randomized 1:1:1:1 to one of four treatment arms; GSK3532795 at doses of 60 mg, 120 mg or 180 mg once daily (QD), and one reference arm with EFV at a dose of 600 mg QD, each given in combination with TDF/FTC 300/200 mg QD.
Participants attended study visits at screening, on Day 1, and once every 4 weeks from Week 4 to Week 24 (telephonic visits were conducted at Week 20). Participants were expected to continue treatment, then, through Week 96, with visit intervals every 8–12 weeks. A post-dose safety follow-up visit was also conducted 12 weeks after treatment discontinuation. Plasma HIV-1 RNA levels were quantified by the Abbott RealTime HIV-1 assay.
The FDA-defined snapshot algorithm was used for primary endpoint efficacy assessment, using the last plasma HIV-1 RNA value in the pre-defined Week 24 visit window (± 6 weeks) to determine response. The modified intent-to-treat (mITT) population consisted of participants who received at least one dose of GSK3532795 or EFV. […]

CD4+ T-cell count = assay: Change from baseline in CD4+ T-cell count; conditions: EFV arm; Week 24
Excerpt: The primary endpoint was determination of the proportion of participants with plasma HIV-1 RNA <40 copies/mL at Week 24 after treatment with GSK3532795 or efavirenz (EFV). Secondary endpoints included mean changes from baseline in CD4+ T-cell count and mean changes in the percentage of CD4+ T-cell count over time. Secondary safety endpoints included frequency of adverse events (AEs), serious AEs (SAEs), and AEs leading to discontinuation through Week 24. Further secondary endpoints included emergence of drug resistance. Exploratory endpoints included assessment of the impact of Gag polymorphisms on the efficacy of GSK3532795. […] In addition, though Gag A364 is essentially invariant across genotypes, it was included in the primary endpoint analysis since emergent resistance to GSK3532795 (both in vitro and in Phase IIa studies) mapped, in part, to the A364V change. Thus, our analysis at the Week 24 primary endpoint was limited to these four positions. Pharmacokinetic (PK) analyses were performed to evaluate treatment exposure and assess the dose proportionality of GSK3532795 when co-administered with tenofovir disoproxil fumarate (TDF)/emtricitabine (FTC).

HIV-1 [2] = assay: Protocol-defined virologic failure and drug resistance testing (GenoSure MG, PhenoSense); conditions: EFV arm; through Week 24
Excerpt: PDVF was defined as either: (1) confirmed HIV-1 RNA ≥40 copies/mL at any time after prior confirmed suppression to <40 copies/mL; or (2) a confirmed >1 log10 copies/mL above the nadir level. Genotypic information required for screening was generated using the GenoSure® MG assay; genotypic information and phenotypic observations during the treatment period were generated using the PhenoSense® combination resistance test.

[3] = Adverse events through Week 24
Method: (§1) Physical examinations, measurement of vital signs, and clinical laboratory evaluations were performed at Weeks 4, 8, 12, 16 and 24, and participants were closely monitored for AEs and SAEs throughout. AEs were classified according to MedDRA version 19.0. The severity and relationship to study drug was assessed by the local investigator.

[4] = Clinical laboratory evaluations
Method: as §1

[5] = GSK3532795: range across 60, 120, 180 mg arms, EFV 600 mg
[6] = GSK3532795 arms pooled, EFV 600 mg, abstract

O=C1Nc2ccc(Cl)cc2[C@@](C#CC2CC2)(C(F)(F)F)O1 [EFV, efavirenz, reference compound]
Participants achieving HIV-1 RNA <40 copies/mL (HIV-1 [1]): 77% | Mean change from baseline in CD4+ T-cell count (SD) (CD4+ T-cell count): 134.7 (SD 151.70) cells/μL | Rate of protocol-defined virologic failure (PDVF) (HIV-1 [2]): 2% (1/53) | Mean time to onset of first diarrhea event ([3]; EFV arm): 73.0 days | Mean duration of first diarrhea event ([3]; EFV arm (shortest)): 35.8 days | Incidence of dizziness relative to GSK3532795 ([3]; EFV arm vs GSK3532795 arms): ~10 fold | SAE considered related to study drug ([3]; GSK3532795 120 mg (no action taken), EFV (led to discontinuation)): increased hepatic enzyme | Grade 1–4-related abdominal pain [3, 5]: 0% | Grade 1–4-related diarrhea [3, 5]: 4% | Adverse events leading to discontinuation [3, 6]: 17% | Serious adverse events [3, 6]: 9% | Frequency of Grade 1–4-related AEs ([3]; GSK3532795 arms pooled, EFV 600 mg, through Week 24): 60% | Mean increase in total cholesterol ([4]; EFV arm, baseline to Week 24): 17.6 mg/dL | Mean increase in triglyceride levels ([4]; EFV arm, baseline to Week 24): 41.1 mg/dL | Hepatic event attributed to EFV ([4]; one participant, discontinued): several Grade 4 liver chemistry elevations

Source: PMC6198970, “Safety, efficacy, and dose response of the maturation inhibitor GSK3532795 (formerly known as BMS-955176) plus tenofovir/emtricitabine once daily in treatment-naive HIV-1-infected adults: Week 24 primary analysis from a randomized Phase IIb trial” (PLoS ONE, 2018)
